Data on 13 molecules can be found in patent US20030134859A1 (SANKYO COMPANY, LIMITED, priority 2000, published 2003).

The structures appear in SMILES notation. Read-outs that look alike come from different tables or passages of the source.

For assay [1], the system named is Rat white adipocytes. As to the kind of experiment: Stimulation of differentiation of the adipocytes (Oil Red O). The assay is classed as cell-based. The conditions noted are these: Rattus norvegicus, Adipocyte, 120 h, 100 nM test compound; 5 days; Oil Red O ABS550; control = 100%, blank = 0%; Table 7; read-out: Rate of Differentiation (%). In a few lines:
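Oil Red O lipid staining, absorbance 550 nm after DMSO extraction, quantified differentiation of rat white adipocytes exposed 5 days to compound (final 100 nM, 0.1% DMSO) in differentiation medium. Percent differentiation normalised between cell-free blank (0%) and DMSO control (100%).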

A further assay has as its system TNF-α production. Put plainly: Inhibitory activity against cytokine (TNF-α) production in LPS-stimulated RAW264.7 cells. To be noted: Mus musculus, 1 μM test compound, LPS 10 ng/mL. The assay is classed as cell-based, mouse. How it is done: The mouse monocyte/macrophage cell line, RAW264.7 (ATCC TIB71) was purchased from Dainippon Pharmaceutical Co., Ltd. The RAW264.7 cells were cultured in a CO2 incubator (37° C., 95% of humidity, 5% of CO2) by using the Dulbecco's modified Eagle's medium (DMEM medium; GIBCO, Cat. No. 11995-040) containing bovine fetal serum (the final concentration: 10% (v/v), MOREGATE, lot No. 474030), penicillin G (the final concentration: 50 units/mL […], GIBCO) and streptomycin (the final concentration: 20 μg/mL, GIBCO).
Sixty (60) μL of the RAW264.7 cell suspension (83,000 cells/mL) were plated into each well of a 96-well microplate (5,000 cells/well). After the cells were cultured for 4 hr in a CO2 incubator, 40 μL of DMEM medium containing 25 ng/mL of LPS (Sigma-Aldrich Japan K. K.) were added into each well (final concentration of LPS: 10 ng/mL). The test compound dissolved in DMSO at a concentration of 1 mM was diluted with DMEM medium by 20 times. Then 2 μL/well of the diluted solution were added to wells containing the plated cells (final concentration of the test compound: 1 μM). As the control, 2 μL/well of DMSO diluted with DMEM medium by 20 times were added to wells containing the plated cells either with LPS (final concentration: 10 ng/mL) or without LPS. After these cells were cultured in a CO2 incubator for 15 hr, the supernatant of the medium was recovered. The amount of mTNF-α in the medium supernatant was determined with a mouse TNF-α ELISA kit Quantikine M (R&D System), according to the experiment protocol attached with the kit.
The inhibitory activity of the test compound against TNF-α production was calculated according to the following equation.
A: The amount of TNF-α in the presence of test compound
B: The amount of TNF-α in the control without LPS
C: The amount of TNF-α in the control with 10 ng/mL of LPS
Inhibitory Activity of the Test Compound against TNF-α Production (%)=100−(A−B)/(C−B)×100

The subject of assay [2] is Mouse preadipocyte strain 3T3-L1. As to the kind of experiment: Inhibition of differentiation as an indication of acetic acid uptake. It counts as cell-based. To be noted: Mus musculus, control (0.01% dimethylsulfoxide) = 100%, read-out: Rate of Uptake (%) of [2-14C] acetic acid. Summed up: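 Differentiation is indexed by 1 hr [2-14C]acetic acid incorporation, measured by scintillation counting and given as uptake relative to 0.01% DMSO control (100%). Mouse 3T3-L1 preadipocytes, pre-grown 10 days, received 0.1 μM test substance throughout a 4-day insulin/IBMX/dexamethasone induction, followed by 2 days' maintenance culture.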

For assay [3], the system named is Rat white adipocytes. Put plainly: Inhibition of the differentiation of adipocytes (Oil Red O). The conditions noted are these: Rattus norvegicus, Adipocyte, 120 h, 100 nM test compound; 5 days; Oil Red O ABS550; control = 100%, blank = 0%; Table 3; read-out: Rate of Differentiation (%). The assay is classed as cell-based. Summed up: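 Rat white preadipocytes, 5,000 cells/well, given differentiation medium with compound at 100 nM final (0.1% DMSO) for 5 days at 37 °C. Lipid stained with Oil Red O, eluted in DMSO, read at 550 nm; differentiation % relative to DMSO control (100%) and blank (0%).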

Usually inhibition stands for the relative decrease from the control value, in per cent. Low values mean a response near the control, high ones a response far below the control. Consider `CCc1ccc(NC(=O)c2cc([N+](=O)[O-])ccc2Cl)cc1` [Example 12, N-(4-Ethylphenyl)-(2-chloro-5-nitrophenyl)carboxamide], for which the activity at 0.1 µM was found to be 120% in the assay with Rat white adipocytes [1] and 66.4% in assay [2] (3T3-L1, 0.1 μM test substance). The molecule also gave an inhibition at 1 µM with TNF-α production (RAW264.7, 15 h) of 21.8%.

As to `CCc1ccccc1NC(=O)c1cc([N+](=O)[O-])ccc1Cl` [Example 13, N-(2-Ethylphenyl)-(2-chloro-5-nitrophenyl)carboxamide], the activity at 0.1 µM with Rat white adipocytes [1] is 127%; in assay [2] (3T3-L1, 0.1 μM test substance), 93%. In addition, in the assay with TNF-α production (RAW264.7, 15 h), the inhibition at 1 µM was determined as 16.2%.

With `O=C(Nc1nc(-c2cccc([N+](=O)[O-])c2)cs1)c1cc([N+](=O)[O-])ccc1Cl` [Example 61, N-[4-(3-Nitrophenyl)thiazol-2-yl]-(2-chloro-5-nitrophenyl)carboxamide], the inhibition at 1 µM in the assay on TNF-α production (15 hr) was 22.6%. Moreover, the activity at 0.1 µM in assay [2] (0.1 μM test substance) is 74.8%.

`O=C(Nc1nc2ccc(Cl)cc2s1)c1cc([N+](=O)[O-])ccc1Cl` [Example 68, N-(6-Chlorobenzothiazol-2-yl)-(2-chloro-5-nitrophenyl)carboxamide]: the activity at 0.1 µM in the assay on Rat white adipocytes [1] came out at 116%; in assay [2] (3T3-L1, 0.1 μM test substance), 67.9%. Also, 1 µM produced 15.2% inhibition in the assay on TNF-α production (RAW264.7, 15 h).

As for `O=C(Nc1ccc(NC(=O)c2cc([N+](=O)[O-])ccc2Cl)cc1)c1cccnc1` [Example 123, N-[4-(Pyridin-3-ylcarbonylamino)phenyl]-(2-chloro-5-nitrophenyl)carboxamide], the activity at 0.1 µM is 148% in the assay with Rat white adipocytes [1] and 96.2% in assay [2] (3T3-L1, 0.1 μM test substance). Moreover, the inhibition at 1 µM in the assay with TNF-α production (RAW264.7, 15 h) was found to be 15.1%.

Consider `CC(=O)Oc1ccc(-c2ccc(NC(=O)c3cc([N+](=O)[O-])ccc3Cl)cc2)cc1` [Example 134, N-[4-(4-Acetoxyphenyl)phenyl]-(2-chloro-5-nitrophenyl)carboxamide], for which, in the assay with Rat white adipocytes [1], the activity at 0.1 µM was determined as 120%. The same molecule registered an inhibition at 1 µM with TNF-α production (RAW264.7, 15 h) of 16.4%.

Turning to `O=C(Nc1ccc(C(=O)N2CCN(c3ccccc3)CC2)cc1)c1cc([N+](=O)[O-])ccc1Cl` [Example 165, N-[4-(4-Phenylpiperazin-1-ylcarbonyl)phenyl]-(2-chloro-5-nitrophenyl)carboxamide], in the assay on TNF-α production (RAW264.7, 15 h), at 1 µM the inhibition was 15.7%. In addition, in the assay on Rat white adipocytes [3], the activity at 0.1 µM amounted to 85.8%.

The molecule `CCCCCCN(CCCC)c1ccc(-c2ccc(NC(=O)c3cc([N+](=O)[O-])ccc3Cl)cc2)cc1` [Example 199, N-[4-[4-(N-Butyl-N-hexylamino)phenyl]phenyl]-(2-chloro-5-nitrophenyl)carboxamide] showed an inhibition at 1 µM in the assay on TNF-α production (RAW264.7, 15 h) of 20.8%. Besides, the activity at 0.1 µM in the assay on Rat white adipocytes [3] turned out to be 35.8%.

On to `CCCCCN(CCC)c1ccc(-c2ccc(NC(=O)c3cc([N+](=O)[O-])ccc3Cl)cc2)cc1` [Example 211, N-[4-[4-(N-Pentyl-N-propylamino)phenyl]phenyl]-(2-chloro-5-nitrophenyl)carboxamide], for which the inhibition at 1 µM in the assay with TNF-α production (RAW264.7, 15 h) was 27.6%. The activity at 0.1 µM in the assay with Rat white adipocytes [3] was 37.3%.

As to `Nc1ccc(-c2csc(NC(=O)c3cc([N+](=O)[O-])ccc3Cl)n2)cc1` [Example 241, N-[4-(4-Aminophenyl)thiazol-2-yl]-(2-chloro-5 nitrophenyl)carboxamide], in the assay with TNF-α production (RAW264.7, 15 h), the inhibition at 1 µM is 28%. Also, the activity at 0.1 µM with Rat white adipocytes [3] turned out to be 57.9%.

In turn, `CCOC(=O)NC(=O)Nc1ccc(-c2ccc(NC(=O)c3cc([N+](=O)[O-])ccc3Cl)cc2)cc1` [Example 244, N-[4-[4-(Ethoxycarbonylaminocarbonylamino)phenyl]phenyl]-(2-chloro-5-nitrophenyl)carboxamide] gave an inhibition at 1 µM in the assay with TNF-α production (RAW264.7, 15 h) of 26.5%. Also, the activity at 0.1 µM with Rat white adipocytes [3] worked out at 45%.

The molecule `O=C(NCc1ccccc1)Nc1ccc(-c2ccc(NC(=O)c3cc([N+](=O)[O-])ccc3Cl)cc2)cc1` [Example 248, N-[4-[4-(Benzylaminocarbonylamino)phenyl]phenyl]-(2-chloro-5-nitrophenyl)carboxamide] returned an inhibition at 1 µM with TNF-α production (RAW264.7, 15 h) of 19.1%. Further, in the assay with Rat white adipocytes [3], the activity at 0.1 µM is 64.4%.

As to `Nc1cccc(-c2csc(NC(=O)c3cc([N+](=O)[O-])ccc3Cl)n2)c1` [Example 253, N-[4-(3-Aminophenyl)thiazol-2-yl]-(2-chloro-5-nitrophenyl)carboxamide], the inhibition at 1 µM in the assay with TNF-α production (RAW264.7, 15 h) turned out to be 29%. For the same molecule, in the assay on Rat white adipocytes [3], the activity at 0.1 µM amounted to 55.7%.
